Results from patent US12533417B2, “L-DOPA and/or DOPA decarboxylse inhibitors conjugated to sugar for the treatment of dopamine-responsive disorders” (B. G. Negev Technologies and Applications Ltd., at …, priority 2018, dated 2026).
Blank lines part the entries; values can stand above or below the molecule they belong to.

Columns and labels:
[1] = Pharmacokinetic of L-DOPA following intravenous administration of L-DOPA and L-DOPAM-2 to mice; format: in vivo; details: for L-DOPA in the plasma: equivalent to 80 mg/kg L-DOPA, 4 and 8 hours after injection, no DOPA decarboxylase inhibitor
Protocol: In order to analyze the stability of DOPAM-2 in vivo, mice were injected intravenously with either L-DOPAM-2 or L-DOPA, where in either case, an equimolar dose of L-DOPA was administered (equivalent to 80 mg/kg L-DOPA). Mice were sacrificed 30, 60, 120, 240, and 480 minutes after the injection of the tested drug, blood was collected and plasma obtained by centrifugation. L-DOPA concentration was determined by LC-MS. 3 mice were tested per each time point, and each point on the graph represents mean±SEM.

[2] = L-DOPA concentration in human serum after adding DOPAM, HPLC-MS with internal standard; format: in vitro ADME
Protocol: HPLC-MS area under the curve were examined after addition of various L-DOPA concentrations to serum (FIG. 10). […] DOPAM was added to human serum in vitro, and L-DOPA concentrations in serum at various timepoints were determined by HPLC-MS and quantified using an internal standard. DOPAM released L-DOPA continuously over at least 24 hours (FIG. 12). The concentration of L-DOPA in serum increased in a linear fashion during the first 6 hours after adding DOPAM to the serum, after which L-DOPA concentration continued to increase through the final time point examined in this experiment (24 hours after DOPAM addition; FIG. 12).

[3] = Stability of L-DOPAM in serum, LC-MS peak areas (Example 4); format: in vitro ADME, human; details: for Area L-DOPA (LC-MS peak area) / Area L-DOPAM (LC-MS peak area) / Area Mannitol (LC-MS peak area): L-DOPAM 2 mg/ml in serum, 36° C.
Protocol: (§1) The stability of one molecule of L-DOPA and one Mannitol (L-DOPAM-1, M.W. 361) in serum was evaluated according to the following procedure: • 1. A solution of 2 mg L-DOPAM in lml of serum was prepared; • 2. A 200 μl aliquot was immediately withdrawn from that solution; • 3. 180 μl of TCA (trichloroacetic acid) 0.6N solution was added; • 4. The obtained mixture was centrifuged (5,000 rpm, 15 min., 40° C.); • 5. The supernatant was filtrated through 0.22 μm filter; • 6. The filtrate was diluted 20 times and injected into Liquid chromatography-mass spectrometry (LC-MS) (column: LUNA 3u C18 (2) 100A; 150×1.0 mm). The eluents were A=Acetonitrile, B=H2O+0.1% Acetic Acid. The following LC gradient was used: […]
The L-DOPAM solution in serum was stored at 36° C. Steps 2-6 were repeated after 2, 4, 23 and 46.5 hours.
The areas of the L-DOPAM, L-DOPA and Mannitol peaks were determined by extraction of only the ions of interest (FIGS. 3-7). The L-DOPA metabolite dopamine was not detected.
In order to semi-quantitatively determine the stability of L-DOPAM, the ratio of the peak areas of L-DOPA versus L-DOPAM and Mannitol versus L-DOPAM was calculated. An increase of the ratio of L-DOPA and Mannitol over time indicates the breakdown of L-DOPAM in serum.

[4] = Release of L-DOPA from L-DOPAM-1 and L-DOPAM-4 in human serum in vitro (Example 5); format: in vitro ADME; details: 37° C., L-DOPA concentration by LC-MS (FIG. 13)
Protocol: as §1
The stability of one molecule of L-DOPA and one of mannitol (L-DOPAM-1), and of four molecules of L-DOPA and one of mannitol (L-DOPAM-4) in serum was evaluated by the method disclosed in Example 4. L-DOPAM-1 and L-DOPAM-4 were added into human serum and incubated at 37° C. Samples were taken at various times after the addition of the drugs to the serum and L-DOPA concentration was determined by LC-MS.

L-DOPA in the plasma [1]: significant levels of L-DOPA
plasma concentrations of L-DOPA compared with mice injected with L-DOPA ([1]; equivalent to 80 mg/kg L-DOPA, 60, 120, 240, and 480 minutes after injection): higher
Structure (SMILES): NC(Cc1ccc(O)c(O)c1)C(=O)OCC(OC(=O)C(N)Cc1ccc(O)c(O)c1)C(O)C(O)C(O)CO (centres unmarked) [DOPAM-2]

time L-DOPA present in serum [2]: about 2 hours
L-DOPA in the plasma [1]: no L-DOPA was detected
Structure (SMILES): N[C@@H](Cc1ccc(O)c(O)c1)C(=O)O [L-DOPA]

time over which L-DOPA was released continuously ([2]; DOPAM added to human serum in vitro, 37° C. (FIG. 12)): at least 24 hours
period of linear increase of L-DOPA concentration in serum ([2]; after adding DOPAM to human serum (FIG. 12)): 6 h
time L-DOPA present in serum [2]: at least 24 hours
L-DOPAM detection in serum ([3]; 46 h after exposure of L-DOPAM to serum): still detected
Area L-DOPA (LC-MS peak area) ([3]; time 0 h): 1019288083
Area L-DOPAM (LC-MS peak area) ([3]; time 0 h): 4065363001
Area Mannitol (LC-MS peak area) ([3]; time 0 h): 60908307
Area L-DOPA (LC-MS peak area) ([3]; time 2 h): 2345301782
Area L-DOPAM (LC-MS peak area) ([3]; time 2 h): 3292402130
Area Mannitol (LC-MS peak area) ([3]; time 2 h): 65437168
Area L-DOPA (LC-MS peak area) ([3]; time 4 h): 2632498093
Area L-DOPAM (LC-MS peak area) ([3]; time 4 h): 2146859775
Area Mannitol (LC-MS peak area) ([3]; time 4 h): 97930402
Area L-DOPA (LC-MS peak area) ([3]; time 23 h): 1539342894
Area L-DOPAM (LC-MS peak area) ([3]; time 23 h): 498391022
Area Mannitol (LC-MS peak area) ([3]; time 23 h): 73274763
Area L-DOPA (LC-MS peak area) ([3]; time 46.5 h): 26308871
Area L-DOPAM (LC-MS peak area) ([3]; time 46.5 h): 460814075
Area Mannitol (LC-MS peak area) ([3]; time 46.5 h): 83932712
Mannitol levels ([3]; L-DOPAM in serum (FIG. 9)): increased over time
L-DOPA metabolite dopamine detected ([3]; L-DOPAM in serum, 0-46.5 h, LC-MS): not detected
Ratio L-DOPA/L-DOPAM (peak areas) ([3]; L-DOPAM in serum, time 0 h): 0.251
Ratio Mannitol/L-DOPAM (peak areas) ([3]; L-DOPAM in serum, time 0 h): 0.015
Ratio L-DOPA/L-DOPAM (peak areas) ([3]; L-DOPAM in serum, time 2 h): 0.712
Ratio Mannitol/L-DOPAM (peak areas) ([3]; L-DOPAM in serum, time 2 h): 0.020
Ratio L-DOPA/L-DOPAM (peak areas) ([3]; L-DOPAM in serum, time 4 h): 1.226
Ratio Mannitol/L-DOPAM (peak areas) ([3]; L-DOPAM in serum, time 4 h): 0.046
Ratio L-DOPA/L-DOPAM (peak areas) ([3]; L-DOPAM in serum, time 23 h): 3.089
Ratio Mannitol/L-DOPAM (peak areas) ([3]; L-DOPAM in serum, time 23 h): 0.147
Ratio L-DOPA/L-DOPAM (peak areas) ([3]; L-DOPAM in serum, time 46.5 h): 0.057
Ratio Mannitol/L-DOPAM (peak areas) ([3]; L-DOPAM in serum, time 46.5 h): 0.182
time up to which L-DOPA levels increased ([3]; L-DOPAM in serum, sharp decrease at the 46 h time point (FIG. 8)): 23 h
course of levels after the increase [4]: gradual decrease at 24 and 48 hours
time up to which levels increased [4]: 8 h
Structure (SMILES): NC(Cc1ccc(O)c(O)c1)C(=O)OC(CO)C(O)C(O)C(O)CO [L-DOPAM-1]

time up to which levels increased [4]: 24 h
time up to which levels increased linearly [4]: 5 h
Structure (SMILES): NC(Cc1ccc(O)c(O)c1)C(=O)OCC(OC(=O)C(N)Cc1ccc(O)c(O)c1)C(O)C(O)C(COC(=O)C(N)Cc1ccc(O)c(O)c1)OC(=O)C(N)Cc1ccc(O)c(O)c1 [L-DOPAM-4]
course of levels after the increase [4]: decreased slightly through the final time point examined after 72 hours
